Experimental data: publication PMC6886544
“And” between values parts separate entries of the source, which are not always exact repeats. Equal values may be shown once.

Key:
Plasma stability, human = format: in vitro ADME; conditions: 5 µM, 1 h, 37 °C
[1] = test system: EGFR and downstream cascade phosphorylation in H1975 cells; assay: Western blot analysis in H1975 cells; format: cell-based; conditions: 1 h inhibitor then EGF stimulation
Protocol: and incubated at 37 °C and 5% CO2. On day 2 cells were starved over night with media containing 0.5% FBS to be incubated on day 3 for 1 h with EGFR inhibitors following an additional 30 min of EGF stimulation at 50 ng/mL. The media was discarded and cells were washed once with DPBS
1x. Using 100 μL per well of lysis buffer, cells were then scraped off and lysed while rotating (Stuart Scientific, Staffordshire, UK) for 1 h at 4 °C. […] Supernatant was transferred into new tube and protein concentrations were determined with the Bio-Rad Protein Assay (Bio-Rad Laboratories, Hercules, CA). […]
captured and quantified using a FUJI LAS3000 system with Science Lab 2001 ImageGauge 4.0 software (Fujifilm Medial Systems, Stamford CT, USA). […]
glycerol, 1 mM TCEP, pH 8) on ice for 1 h. We analyzed the aliquots by ESI-MS using an Thermo Fisher Scientific Dionex UltiMate 3000 HPLC system connected to a Thermo Fisher Scientific Velos Pro (2d ion trap). Therefore, 5 μL of sample was injected and separated using a Vydac 214TP C4 5 μm column (150 mm x 2.1 mm) starting at 20% of solvent B for 5 minutes followed by a gradient up to 90% of solvent B over 14 min with a flow rate of 210 μL/min with 0.1% TFA in water as solvent A and 0.1% TFA in MeCN as solvent B. A mass range of 700 to 2000 m/z was scanned and raw data was deconvoluted and analyzed with MagTran software (Z.Q. Zhang, A.G. […]

ITK = ITK (Homo sapiens, UniProt Q08881); assay: SelectScreen kinase profiling, ITK; format: biochemical; conditions: mean ± SD of one measurement in duplicates
ITK, sequence (Q08881 whole entry): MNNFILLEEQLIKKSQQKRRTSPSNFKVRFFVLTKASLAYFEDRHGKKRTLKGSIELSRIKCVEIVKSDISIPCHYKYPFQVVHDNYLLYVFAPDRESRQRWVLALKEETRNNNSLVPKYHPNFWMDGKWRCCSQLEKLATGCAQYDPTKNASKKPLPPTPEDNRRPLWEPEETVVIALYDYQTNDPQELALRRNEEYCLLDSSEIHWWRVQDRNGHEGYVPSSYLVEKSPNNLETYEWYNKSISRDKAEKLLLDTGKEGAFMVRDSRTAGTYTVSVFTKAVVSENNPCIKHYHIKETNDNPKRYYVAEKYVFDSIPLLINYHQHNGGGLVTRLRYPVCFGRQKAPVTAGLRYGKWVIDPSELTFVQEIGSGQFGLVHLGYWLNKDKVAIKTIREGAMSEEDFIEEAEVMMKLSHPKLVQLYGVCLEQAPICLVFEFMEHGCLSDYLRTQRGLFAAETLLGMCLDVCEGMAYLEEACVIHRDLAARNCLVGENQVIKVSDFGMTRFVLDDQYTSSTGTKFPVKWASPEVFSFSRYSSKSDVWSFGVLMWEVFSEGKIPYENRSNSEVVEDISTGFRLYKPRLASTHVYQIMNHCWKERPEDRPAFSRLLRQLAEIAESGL
Protocol: Kinase profiling of compound 17a at a concentration of 1 µM generated with the SelectScreen® Profiling Service from Life Technologies.
Figure S2. Kinase profiling of compound 17a, Illustration as waterfall plot. 9 Kinases harboring a Cysteine isostructural to Cys797 in EGFR are highlighted
Kinase % inhibition Kinase % inhibition […]
aValues are the mean ± SD of one measurement in duplicates; bKinases harboring a Cysteine isostructural to Cys797 […]
(1 picture or pasted object on this page, not shown here)

Q: For C=CC(=O)Nc1cccc(-c2c(-c3ccc(N4CCN(C)CC4)cc3)[nH]c3ncnc(OCC(C)C)c23)c1 [Compound 19h], which Plasma stability (Plasma stability, human) is on record?
A: 99 %remain and 100 %remain

Q: Which “concentration at which phosphorylation of EGFR and downstream proteins was reduced/inhibited” value [1] does the source give for C=CC(=O)Nc1cccc(-c2c(-c3ccc(CN4CCN(C)CC4)cc3)[nH]c3ncnc(OC)c23)c1 [Compound 17a] here?
A: around 100 nM

Q: What about the inhibition at 1 µM (ITK) of the same compound?
A: 70 ± 2%
